In US20150004134A1, “TREATMENT OF CANCER WITH HETEROCYCLIC INHIBITORS OF GLUTAMINASE” (Calithera Biosciences, Inc., priority 2012, published 2015):
pIC50: −log10 of the molar value. Like-named read-outs stand apart in the source and are kept apart here.

System: P493-6 (myc "on") cells
Test: Cell Proliferation Assay
Format: cell-based
Method: P493-6 (myc “on”) cells were maintained in growth media (RPMI-1640, 10% FBS, 2 mM glutamine, 100 units/ml Penicillin and 100 μg/ml streptomycin) at 37° C. with 5% CO2. For compound assay, P493-6 cells were plated in 96-well V-bottom plates on the day of compound addition in 50 μl of growth media at a cell density of 200,000 cells/ml (10,000 cells/well). Compounds were serially diluted in 100% DMSO at 200-times the final concentration. Compounds were diluted 100-fold into growth media and then 50 μl of this mixture was added to cell plates making the final concentration of DMSO 0.5%. Cells were incubated with compound for 72 hrs at 37° C. with 5% CO2 and analyzed for antiproliferative effects either by Cell Titer Glo (Promega) or FACS analysis using the Viacount (Millipore) kit on the Guava instrument.

[1] = P493-6, 72 h, read-out: Cell prolif P493 72 h IC50, P493-6 cells, 72 h
[2] = P493-6, 72 h, read-out: Cell prolif P493 72 h IC50, P493 cells, 72 h

SMILES	pIC50 [2]	other results
Cc1nnc(Cc2cccc(CC(=O)Nc3ccc(CCCCc4nnc(NC(=O)Cc5ccccc5)s4)nn3)c2)o1 [Compound 652, 2-(3-((5-methyl-1,3,4-oxadiazol-2-yl)methyl)phenyl)-N-(6-(4-(5-(2-phenylacetamido)-1,3,4-thiadiazol-2-yl)butyl)pyridazin-3-yl)acetamide]	–	pIC50 [1]: 7.41
N#Cc1ccc(CC(=O)Nc2nnc(CCSCCc3nnc(NC(=O)Cc4ccc(C#N)cc4)s3)s2)cc1 [Compound 216]	< 4.30	–
CC(=O)Nc1ccc(CC(=O)Nc2nnc(CCCCc3ccc(NC(=O)Cc4ccccc4)nn3)s2)cc1 [Compound 426]	–	pIC50 [1]: 7.48
O=C(Nc1nnc(CCCCc2nnc(NC(=O)C(O)c3ccccc3Br)s2)s1)C(O)c1ccccc1Br (stereo not shown) [Compound 287]	5.89	–
COc1ccc(C(O)C(=O)Nc2nnc(CCCCc3nnc(NC(=O)C(O)c4ccc(OC)cc4)s3)s2)cc1 (stereo not shown) [Compound 320]	6.72	–
COC(=O)Nc1nnc(CCCCc2nnc(NC(=O)Cc3ccccc3)s2)s1 [Compound 387]	5.64	–
O=C(Nc1nnc(CCSCCc2nnc(NC(=O)C3Cc4ccccc4O3)s2)s1)C1Cc2ccccc2O1 (stereo not shown) [Compound 50]	5.09	–
COC(C(=O)Nc1nnc(CCCCc2nnc(NC(=O)C(OC)c3ccccc3)s2)s1)c1ccccc1 (stereo not shown) [Compound 65]	6.28	–
O=C(Cc1ccccc1)Nc1nnc(CCSCc2nnc(NC(=O)Cc3cccc(OCCN4CCOCC4)c3)s2)s1 [Compound 378]	7.05	–
O=C(Cc1ccco1)Nc1nnc(CCSCCc2nnc(NC(=O)Cc3ccco3)s2)s1 [Compound 82]	5.89	–
Nc1ccc(CCCCc2nnc(NC(=O)Cc3ccccc3)s2)nn1 [Compound 348, N-(5-(4-(6-aminopyridazin-3-yl)butyl)-1,3,4-thiadiazol-2-yl)-2-phenylacetamide]	5.77	–
O=C(Cc1ccncc1)Nc1nnc(CCSCCc2nnc(NC(=O)Cc3ccncc3)s2)s1 [Compound 361]	< 4.70	–
CC1(C(=O)Nc2nnc(CCCCc3nnc(NC(=O)C4(C)CCCO4)s3)s2)CCCO1 (stereo not shown) [Compound 123]	5.18	–
CCNC(=O)Nc1ccc(CCCCc2nnc(NC(=O)Cc3cccc(CNC(=O)OC(C)(C)C)c3)s2)nn1 [Compound 420]	–	pIC50 [1]: 7.15
O=C(CC1CCCCC1)Nc1nnc(CCSCCc2nnc(NC(=O)CC3CCCCC3)s2)s1 [Compound 48]	6.38	–
O=C(Cc1cccc(OCCN2CCOCC2)c1)Nc1nnc(CCSCc2nnc(NC(=O)Cc3cccc(OCCN4CCOCC4)c3)s2)s1 [Compound 267]	6.19	–
COC(C(=O)Nc1nnc(CCSCCc2nnc(NC(=O)C(OC)c3ccccc3)s2)s1)c1ccccc1 (stereo not shown) [Compound 67]	5.74	–
O=C(Nc1nnc(CCCCc2nnc(NC(=O)C3Cc4cc(Cl)ccc4O3)s2)s1)C1Cc2cc(Cl)ccc2O1 (stereo not shown) [Compound 120]	4.42	–
O=C(Nc1nnc(CCSCCc2nnc(NC(=O)C(c3ccccc3)N3CCNCC3)s2)s1)C(c1ccccc1)N1CCNCC1 (stereo not shown) [Compound 79]	5.70	–
CC(CCc1nnc(NC(=O)Cc2ccccc2)s1)Cc1nnc(NC(=O)Cc2ccccc2)s1 (stereo not shown) [Compound 44]	5.59	–
O=C(Cc1ccccc1)Nc1ccc(CCCCc2nnc(NC(=O)Cc3cccc(CNC(=O)c4ccccc4)c3)s2)nn1 [Compound 432]	–	pIC50 [1]: 8.40
O=C(Nc1nnc(CCSCCc2nnc(NC(=O)C3Oc4ccccc4O3)s2)s1)C1Oc2ccccc2O1 [Compound 134]	4.55	–

SMILES	pIC50 [2]	other results
O=C(Nc1nnc(CCCc2nnc(NC(=O)C(CO)c3ccccc3)s2)s1)C(CO)c1ccccc1 (stereo not shown) [Compound 176]	5.82	–
O=C(Cc1ccccc1)Nc1nnc(CCCCCc2nnc(NC(=O)Cc3ccccc3)s2)s1 [Compound 11]	6.05	–
O=C(Cc1ccccc1)Nc1nnc(CCCCc2nnc(NC(=O)C(O)c3cccc(Cl)c3)s2)s1 (stereo not shown) [Compound 527]	7.01	–
O=C(Nc1nnc(CCCCc2nnc(NC(=O)C3(c4ccccc4)CC3)s2)s1)C1(c2ccccc2)CC1 [Compound 168]	< 4.30	–
O=C(CCN1CCOCC1)OC(C(=O)Nc1nnc(CCCCc2nnc(NC(=O)C(OC(=O)CCN3CCOCC3)c3cccc(Cl)c3)s2)s1)c1cccc(Cl)c1 (stereo not shown) [Compound 332]	7.06	–
O=C(Nc1nnc(CCSCCc2nnc(NC(=O)C3Cc4cc(Br)ccc4O3)s2)s1)C1Cc2cc(Br)ccc2O1 (stereo not shown) [Compound 118]	4.44	–
O=C(Nc1nnc(CCCCc2nnc(NC(=O)C3(C(F)(F)F)CC3)s2)s1)C1(C(F)(F)F)CC1 [Compound 62]	4.72	–
CS(=O)(=O)Cc1cccc(CC(=O)Nc2nnc(CCCCc3ccc(NC(=O)Cc4ccccc4)nn3)s2)c1 [Compound 634]	–	pIC50 [1]: 7.32
O=C(Cc1ccccc1)Nc1ccc(CCCCc2nnc(NC(=O)Cc3cccc(OCc4ccccn4)c3)s2)nn1 [Compound 480]	–	pIC50 [1]: 5.20
COC(C(=O)Nc1nnc(CCCCc2ccc(NC(=O)Cc3cccc(CNC(=O)CC(O)C(F)(F)F)c3)nn2)s1)c1ccccc1 (stereo not shown) [Compound 604]	–	pIC50 [1]: 7.38
O=C(C[C@@H](O)c1ccccc1)Nc1nnc(CCCCc2nnc(NC(=O)C[C@@H](O)c3ccccc3)s2)s1 [Compound 127]	6.35	–
O=C(Nc1nnc(CCCCc2nnc(NC(=O)C(F)(F)F)s2)s1)C(F)(F)F [Compound 45]	< 4.30	–
CC(=O)OCC(C(=O)Nc1nnc(CCSCCc2nnc(NC(=O)C(COC(C)=O)c3ccccc3)s2)s1)c1ccccc1 (stereo not shown) [Compound 14]	5.74	–
CC(C(=O)Nc1nnc(CCCCc2nnc(NC(=O)C(C)c3ccccc3Cl)s2)s1)c1ccccc1Cl (stereo not shown) [Compound 274]	6.17	–
CC(C)(C)C(=O)OCN(C(=O)Cc1ccccc1)c1nnc(CCSCCc2nnc(NC(=O)Cc3ccccc3)s2)s1 [Compound 15]	5.92	–
O=C(Nc1nnc(CCCCc2nnc(NC(=O)[C@@H](O)c3ccccc3Cl)s2)s1)[C@@H](O)c1ccccc1Cl [Compound 210]	6.38	–
NCCC(C(=O)Nc1nnc(CCSCCc2nnc(NC(=O)C(CN)c3ccccc3)s2)s1)c1ccccc1 (stereo not shown) [Compound 214]	5.92	–
CC(=O)Nc1nnc(CCSCCc2nnc(NC(C)=O)s2)s1 [Compound 13]	–	pIC50 (P493-6, read-out: Cell prolif P493 72 h IC50, P493 cells, 72 h): 4.92
O=C(Cc1ccccc1)Nc1nnc(CCCCc2nnc(NC(=O)Cc3cccc(OCCN4CCOCC4)c3)s2)s1 [Compound 390]	6.80	–
CN(C)CC(=O)Nc1ccc(CCCCc2nnc(NC(=O)Cc3cccc(CNC(=O)OC(C)(C)C)c3)s2)nn1 [Compound 478]	–	pIC50 [1]: 7.34
CS(=O)(=O)c1ccc(CC(=O)Nc2nnc(CCSCCc3nnc(NC(=O)Cc4ccc(S(C)(=O)=O)cc4)s3)s2)cc1 [Compound 182]	< 4.30	–
O=C(CN1C(=O)OC[C@H]1c1ccccc1)Nc1nnc(CCSCCc2nnc(NC(=O)CN3C(=O)OC[C@H]3c3ccccc3)s2)s1 [Compound 243]	4.48	–

SMILES	pIC50 [2]	other results
CC(C)(CCc1nnc(NC(=O)Cc2ccccc2)s1)CCc1nnc(NC(=O)Cc2ccccc2)s1 [Compound 10]	< 4.30	–
O=C(Cn1cccn1)Nc1nnc(CCCCc2nnc(NC(=O)Cn3cccn3)s2)s1 [Compound 60]	4.85	–
CCCCOC(=O)Nc1nnc(CCCCc2nnc(NC(=O)Cc3ccccc3)s2)s1 [Compound 388]	6.12	–
O=C(Nc1nnc(CCCCc2nnc(NC(=O)C3CCCO3)s2)s1)C1CCCO1 (stereo not shown) [Compound 54]	5.80	–
CN(C)c1ccc(CC(=O)Nc2nnc(CCSCCc3nnc(NC(=O)Cc4ccc(N(C)C)cc4)s3)s2)cc1 [Compound 162]	6.82	–
CC(C)[C@H](N)C(=O)Nc1nnc(CCSCCc2nnc(NC(=O)Cc3ccccc3)s2)s1 [Compound 32]	4.96	–
Nc1nnc(CCCCc2nnc(NC(=O)C(CO)c3ccccc3)s2)s1 (stereo not shown) [Compound 227]	5.48	–
CC(=O)N1CCN(Cc2cc(CC(=O)Nc3nnc(CCCCc4ccc(NC(=O)Cc5ccccc5)nn4)s3)ccc2F)CC1 [Compound 528]	–	pIC50 [1]: 7.36
CC(C(=O)Nc1ccc(CCCCc2nnc(NC(=O)C(O)c3cccc(Cl)c3)s2)nn1)c1ccccc1 (stereo not shown) [Compound 468]	–	pIC50 [1]: 6.57
O=C(Cc1ccccc1CO)Nc1nnc(CCCCc2nnc(NC(=O)Cc3ccccc3CO)s2)s1 [Compound 208]	5.05	–
O=C(Nc1nnc(CCCCc2nnc(NC(=O)[C@@H](O)c3ccccc3)s2)s1)[C@@H](O)c1ccccc1 [Compound 92]	6.33	–
O=C(Cc1ccccc1)NCc1cccc(CC(=O)Nc2nnc(CCCCc3ccc(NC(=O)Cc4ccccc4)nn3)s2)c1 [Compound 435]	–	pIC50 [1]: 8.22
O=C1CC(C(=O)Nc2nnc(CCCCc3nnc(NC(=O)C4CC(=O)c5ccccc54)s3)s2)c2ccccc21 (stereo not shown) [Compound 64]	6.64	–
NS(=O)(=O)c1ccc(CC(=O)Nc2nnc(CCSCCc3nnc(NC(=O)Cc4ccc(S(N)(=O)=O)cc4)s3)s2)cc1 [Compound 217]	< 4.30	–
O=C(Cc1ccccc1)Nc1nnc(CCSCCc2nnc(NC(=O)[C@@H]3CCCN3C(=O)C(F)(F)F)s2)s1 [Compound 35]	5.42	–
CC1(C(=O)Nc2nnc(CCSCCc3nnc(NC(=O)C4(C)CCCO4)s3)s2)CCCO1 (stereo not shown) [Compound 119]	4.89	–
Cc1cccc(CNC(=O)Nc2nnc(CCCCc3nnc(NC(=O)Cc4ccccc4)s3)s2)c1 [Compound 417]	–	pIC50 [1]: 6.49
CN(C)c1ccc(CC(=O)Nc2nnc(CCCCc3nnc(NC(=O)Cc4ccc(N(C)C)cc4)s3)s2)cc1 [Compound 164]	6.89	–
CCCC(=O)OCN(C(=O)Cc1cccc(CNC(=O)OC(C)(C)C)c1)c1nnc(CCCCc2ccc(NC(=O)Cc3ccccc3)nn2)s1 [Compound 552]	–	pIC50 [1]: 8.30
CC(C)(C)OC(=O)NCc1ccccc1CC(=O)Nc1nnc(CCCCc2ccc(NC(=O)Cc3ccccc3)nn2)s1 [Compound 464]	–	pIC50 [1]: 7.23
